Test results from US9499550B2 (BRISTOL-MYERS SQUIBB COMPANY, priority 2012, dated 2016).
Where two headings read alike, the source gives them in different places.

What was measured:
[1] = system: HCV genotype 1a (H77 strain) replicon in HUH-7 cells; assay: HCV replicon luciferase reporter assay, genotype 1a; format: cell-based; settings: Hepatitis C virus, Huh-7, 72 h, 3 days incubation
How it was run: (§1)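 Replicon inhibition for both genotypes was measured as Renilla luciferase signal (EnduRen, 7.5 μM final, 2 h) after 3-day, 37° C exposure of replicon-bearing HUH-7 cells in 4% FCS DMEM, 0.5% DMSO. The 1b construct carries S1179I; the 1a H77 construct carries P1496L and S2204I. Twenty-point, 3-fold dilutions were fitted four-parametrically for EC50, and CC50 was taken from multiplexed Cell Titer-Blue.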

[2] = system: HCV genotype 1b (Con1) replicon in HUH-7 cells; assay: HCV replicon luciferase reporter assay, genotype 1b; format: cell-based; settings: Hepatitis C virus, Huh-7, 72 h, 3 days incubation
How it was run: as §1

[3] = HCV genotype 1a replicon luciferase, read-out: LE_1a (EC50)
[4] = HCV genotype 1a replicon luciferase, read-out: LE_1a (EC50, range)
[5] = HCV genotype 1b replicon luciferase, read-out: LE_1b (EC50)
[6] = HCV genotype 1b replicon luciferase, read-out: LE_1b (EC50, range)

Structure (SMILES) | EC50 [1, 3] [nM] | EC50 [1, 4] [nM] | EC50 [2, 5] [nM] | EC50 [2, 6] [nM] | EC50 ([1]; HCV genotype 1a replicon luciferase assay, range class, read-out: LE_1a (EC50, range)) [nM] | EC50 ([2]; HCV genotype 1b replicon luciferase assay, range class, read-out: LE_1b (EC50, range)) [nM]
CC[C@@H]1C[C@H](C)CC/C=C\[C@@H]2C[C@@]2(C(=O)NS(=O)(=O)C2(C)CC2)NC(=O)[C@@H]2C[C@@H](Oc3ncc(OC)c4ccc(F)cc34)CN2C(=O)[C@H]1NC(=O)N1CCOCC1 [Compound 4284, N-((2R,6S,7R,9R,13aS,14aR,16aS,Z)-7-ethyl-2-((7-fluoro-4-methoxyisoquinolin-1-yl)oxy)-9-methyl-14a-(((1-methylcyclopropyl)sulfonyl)carbamoyl)-5,16-dioxo-1,2,3,5,6,7,8,9,10,11,13a,14,14a,15,16,16a-hexadecahydrocyclopropa[e]pyrrolo[1,2-a][1,4]diazacyclopentadecin-6-yl)morpholine-4-carboxamide] | 0.73 | 0.51 to 1 | 0.42 | 0.1 to 0.5 | – | –
COc1ccc2c(O[C@@H]3C[C@H]4C(=O)N[C@]5(C(=O)NS(=O)(=O)C6(C)CC6)C[C@H]5/C=C\CC[C@@H](C)C[C@@H](C)[C@H](NC(=O)OC(C)(C)C(F)(F)F)C(=O)N4C3)nc(-c3ccc(N4CCOCC4)cc3)cc2c1 [Compound 5199, 1,1,1-trifluoro-2-methylpropan-2-yl((2R,6S,7R,9R,13aS,14aR,16aS,Z)-2-((6-methoxy-3-(4-morpholinophenyl)isoquinolin-1-yl)oxy)-7,9-dimethyl-14a-(((1-methylcyclopropyl)sulfonyl)carbamoyl)-5,16-dioxo-1,2,3,5,6,7,8,9,10,11,13a,14,14a,15,16,16a-hexadecahydrocyclopropa[e]pyrrolo[1,2-a][1,4]diazacyclopentadecin-6-yl)carbamate] | – | < 5.46 | – | < 5.46 | – | –
CCCOc1cnc(O[C@@H]2C[C@H]3C(=O)N[C@]4(C(=O)NS(=O)(=O)C5(C)CC5)C[C@H]4/C=C\CC[C@H](C)C[C@@H](C)[C@H](NC(=O)O[C@H](C)C(F)(F)F)C(=O)N3C2)c2ccccc12 [Compound 5084, (R)-1,1,1-trifluoropropan-2-yl ((2R,6S,7R,9S,13aS,14aR,16aS,Z)-7,9-dimethyl-14a-(((1-methylcyclopropyl)sulfonyl)carbamoyl)-5,16-dioxo-2-((4-propoxyisoquinolin-1-yl)oxy)-1,2,3,5,6,7,8,9,10,11,13a,14,14a,15,16,16a-hexadecahydrocyclopropa[e]pyrrolo[1,2-a][1,4]diazacyclopentadecin-6-yl)carbamate] | 520 | > 87.4 | 131 | > 87.4 | – | –
COc1ccc2c(O[C@@H]3C[C@H]4C(=O)N[C@]5(C(=O)NS(=O)(=O)C6(C)CC6)C[C@H]5/C=C\CC[C@@H](C)C[C@@H](C)[C@H](NC(=O)c5ccc(N(C)C)cc5)C(=O)N4C3)nccc2c1 [Compound 5181, (2R,6S,7R,9R,13aS,14aR,16aS,Z)-6-(4-(dimethylamino)benzamido)-2-((6-methoxyisoquinolin-1-yl)oxy)-7,9-dimethyl-N-((1-methylcyclopropyl)sulfonyl)-5,16-dioxo-1,2,3,5,6,7,8,9,10,11,13a,14,14a,15,16,16a-hexadecahydrocyclopropa[e]pyrrolo[1,2-a][1,4]diazacyclopentadecine-14a-carboxamide] | – | < 5.46 | – | < 5.46 | – | –
COc1ccc2c(O[C@@H]3C[C@H]4C(=O)N[C@]5(C(=O)NS(=O)(=O)C6(C)CC6)C[C@H]5/C=C\CC[C@@H](C)C[C@@H](C)[C@H](NC(=O)OCC5(C)CC5)C(=O)N4C3)nc(N3CCOCC3)cc2c1 [Compound 3091, (1-methylcyclopropyl)methyl ((2R,6S,7R,9R,13aS,14aR,16aS,Z)-2-((6-methoxy-3-morpholinoisoquinolin-1-yl)oxy)-7,9-dimethyl-14a-(((1-methylcyclopropyl)sulfonyl)carbamoyl)-5,16-dioxo-1,2,3,5,6,7,8,9,10,11,13a,14,14a,15,16,16a-hexadecahydrocyclopropa[e]pyrrolo[1,2-a][1,4]diazacyclopentadecin-6-yl)carbamate] | – | – | – | – | < 5.46 | < 5.46
